{"source": "patent US4695581A", "about": "“2-(3,5-dialkyl-4-hydroxyphenyl)indole derivatives” (Teikoku Hormone Mfg. Co., Ltd., priority 1984, dated 1987)", "key": {"[1]": {"tested_on": "SRS-A-like active substance", "assay": "A23187-induced pleurisy; inhibition of formation of SRS-A-like active substance in pleural exudate", "type": "in vivo, rat (Wistar-strain, male, 11 weeks old)", "conditions": "Rattus norvegicus, po, p.o., 60 minutes before intrapleural A23187, rats, vs solvent control, read-out: Inhibitory activity on the formation of SRS-A-like active substance", "experimental": "(1) Preparation of A23187 -induced pleurisy Under ether anaesthesia, 0.2 ml of 100 μM A23187 (prepared by adding injectable distilled water in a 2 mM A23187 ethanol solution) was administered intrapleurally to rats (Wistar-strain, male, 11 weeks old). Twenty minutes after the administration, the rats were exsanguinated and the pleural exudate was harvested. […] (2) Measurement of SRS-A-like active substance To the exudate obtained in (1) was added 4 times its volume of ice-cooled ethanol. They were well mixed, and then centrifuged. […] The solution was added to SEP-PAK® (C18) and SRS-A-like active substance was partially purified. […] The residue was dissolved in purified water in an amount corresponding to the amount of the exudate. The SRS-A-like active substance was assayed on the basis of contraction of the ileum of guinea pig (Hartley-strain, male, body weight 400-500 g) in the presence of atropine and Pyrilamine. The presence of SRS-A was confirmed by the fact that the contraction of the isolated ileum by the test solution was antagonized by FPL-55712 which is a specific antagonist for SRS-A. The results are shown in the following table. The activity of inhibiting the formation of an SRS-A-like active substance is indicated as the percent inhibition based on a control group to which only the solvent was administered."}, "[2]": {"tested_on": "lipoxygenase", "conditions": "known from the prior art; cited from earlier work"}, "[3]": {"tested_on": "cyclooxygenase", "conditions": "known from the prior art; cited from earlier work"}, "[4]": {"tested_on": "SRS-A", "assay": "Contraction of isolated guinea pig ileum by the test solution (confirmation of SRS-A)", "set-up": "species or system guinea pig (Hartley-strain, male)", "conditions": "in the presence of atropine and Pyrilamine", "experimental": "The SRS-A-like active substance was assayed on the basis of contraction of the ileum of guinea pig (Hartley-strain, male, body weight 400-500 g) in the presence of atropine and Pyrilamine. The presence of SRS-A was confirmed by the fact that the contraction of the isolated ileum by the test solution was antagonized by FPL-55712 which is a specific antagonist for SRS-A."}, "[5]": {"tested_on": "SD-strain male rats", "assay": "Toxicity, oral administration, observation for 2 weeks", "type": "in vivo, rat (SD-strain", "conditions": "5 g/kg, 10% gum arabic suspension, 5-membered groups", "text": "The test compound was suspended in a 10% gum arabic solution, and orally administered to SD-strain male rats (body weight 100-115 g) in 5-membered groups."}}, "note": "Counter-ions that a name gives are not always drawn.", "data": [{"smiles": "Cc1ccc2[nH]c(-c3cc(C)c(O)c(C)c3)c(C)c2c1", "note": "[Example 5, 2-(4-Hydroxy-3,5-dimethylphenyl)-3,5-dimethylindole]", "values": [{"measurement": "inhibition at 10 mg/kg", "setting": "[1]", "result": 54.7, "unit": "%"}]}, {"smiles": "Cc1cc(-c2[nH]c3ccccc3c2C)cc(C)c1O", "note": "[Example 30, 2-(4-hydroxy-3,5-dimethylphenyl)-3-methylindole]", "values": [{"measurement": "inhibition at 10 mg/kg", "setting": "[1]", "result": 58, "unit": "%"}, {"measurement": "inhibition at 30 mg/kg", "setting": "[1]", "result": 90.2, "unit": "%"}]}, {"smiles": "Cc1cc(-c2[nH]c3c(C)cccc3c2C)cc(C)c1O", "note": "[Example 16, 2-(4-Hydroxy-3,5-dimethylphenyl)-3,7-dimethylindole]", "values": [{"measurement": "inhibition at 10 mg/kg", "setting": "[1]", "result": 37.5, "unit": "%"}]}, {"smiles": "COc1cc2[nH]c(-c3cc(C)c(O)c(C)c3)c(C)c2cc1OC", "note": "[Example 24, 2-(4-Hydroxy-3,5-dimethylphenyl)-5,6-dimethoxy-3-methylindole]", "values": [{"measurement": "inhibition at 10 mg/kg", "setting": "[1]", "result": 70.4, "unit": "%"}]}, {"smiles": "Cc1cc(-c2[nH]c3ccc(OCc4ccccc4)cc3c2C)cc(C)c1O", "note": "[Example 36, 5-benzyloxy-2-(4-hydroxy-3,5-dimethylphenyl)-3-methylindole]", "values": [{"measurement": "inhibition at 10 mg/kg", "setting": "[1]", "result": 35.4, "unit": "%"}]}, {"smiles": "CCN(CC)CCOc1ccc2[nH]c(-c3cc(C)c(O)c(C)c3)c(C)c2c1", "note": "[Example 35, 5-(2-diethylaminoethoxy)-2-(4-hydroxy-3,5-dimethylphenyl)-3-methylindole]", "values": [{"measurement": "inhibition at 10 mg/kg", "setting": "[1]", "result": 39.1, "unit": "%"}]}, {"smiles": "CC(=O)Oc1ccc2[nH]c(-c3cc(C)c(O)c(C)c3)c(C)c2c1", "note": "[Example 37]", "values": [{"measurement": "inhibition at 10 mg/kg", "setting": "[1]", "result": 43.7, "unit": "%"}]}, {"smiles": "NC1=NN(c2cccc(C(F)(F)F)c2)CC1", "note": "[BW755C, 3-amino-1-(3-trifluoromethylphenyl)-2-pyrazoline]", "values": [{"measurement": "lipoxygenase inhibition", "setting": "[2]", "result": "lipoxygenase inhibitors"}, {"measurement": "cyclooxygenase inhibition (lack of specificity)", "setting": "[3]", "result": "lack specificity and inhibit not only lipoxygenase but also cyclooxygenase"}]}, {"smiles": "Cc1ccc2c(C)c(-c3cc(C)c(O)c(C)c3)[nH]c2c1", "note": "[Example 14, 2-(4-Hydroxy-3,5-dimethylphenyl)-3,6-dimethylindole]", "values": [{"measurement": "inhibition at 10 mg/kg", "setting": "[1]", "result": 30.7, "unit": "%"}]}, {"smiles": "CCc1c(-c2cc(C)c(O)c(C)c2)[nH]c2ccccc12", "note": "[Example 44, 3-ethyl-2-(4-hydroxy-3,5-dimethylphenyl)indole]", "values": [{"measurement": "inhibition at 10 mg/kg", "setting": "[1]", "result": 46.9, "unit": "%"}, {"measurement": "inhibition at 30 mg/kg", "setting": "[1]", "result": 87.2, "unit": "%"}]}, {"smiles": "CCCc1c(OCC(O)COc2ccc3c(=O)cc(C(=O)O)oc3c2CCC)ccc(C(C)=O)c1O", "note": "(centres unmarked) [FPL-55712]", "values": [{"measurement": "antagonism of contraction of the isolated ileum", "setting": "[4]", "result": "antagonized"}]}, {"smiles": "CCOc1ccc2[nH]c(-c3cc(C)c(O)c(C)c3)c(C)c2c1", "note": "[Example 8, 5-Ethoxy-2-(4-hydroxy-3,5-dimethylphenyl)-3-methylindole]", "values": [{"measurement": "inhibition at 10 mg/kg", "setting": "[1]", "result": 28.7, "unit": "%"}]}, {"smiles": "CCc1c(-c2cc(C)c(O)c(C)c2)[nH]c2ccc(OC)cc12", "note": "[Example 45, 3-ethyl-2-(4-hydroxy-3,5-dimethylphenyl)-5-methoxyindole]", "values": [{"measurement": "inhibition at 10 mg/kg", "setting": "[1]", "result": 52.7, "unit": "%"}]}, {"smiles": "COc1ccc2[nH]c(-c3cc(C)c(O)c(C)c3)c(C)c2c1", "note": "[Example 1, 2-(4-hydroxy-3,5-dimethylphenyl)-5-methoxy-3-methylindole]", "values": [{"measurement": "inhibition at 10 mg/kg", "setting": "[1]", "result": 66.2, "unit": "%"}, {"measurement": "death", "setting": "[5]", "result": "No case of death was observed"}]}, {"smiles": "CCc1cc(-c2[nH]c3ccccc3c2C)cc(CC)c1O", "note": "[Example 46, 2-(3,5-diethyl-4-hydroxyphenyl)-3-methylindole]", "values": [{"measurement": "inhibition at 10 mg/kg", "setting": "[1]", "result": 22.9, "unit": "%"}, {"measurement": "inhibition at 30 mg/kg", "setting": "[1]", "result": 74.2, "unit": "%"}]}, {"smiles": "Cc1cc(-c2[nH]c3ccc(N)cc3c2C)cc(C)c1O", "note": "[Example 33, 5-amino-2-(4-hydroxy-3,5-dimethylphenyl)-3-methylindole]", "values": [{"measurement": "inhibition at 10 mg/kg", "setting": "[1]", "result": 68.1, "unit": "%"}]}, {"smiles": "CCCOc1ccc2[nH]c(-c3cc(C)c(O)c(C)c3)c(C)c2c1", "note": "[Example 43, 2-(4-hydroxy-3,5-dimethylphenyl)-3-methyl-5-n-propoxyindole]", "values": [{"measurement": "inhibition at 10 mg/kg", "setting": "[1]", "result": 46.2, "unit": "%"}]}, {"smiles": "CSc1ccc2[nH]c(-c3cc(C)c(O)c(C)c3)c(C)c2c1", "note": "[Example 10, 2-(4-hydroxy-3,5-dimethylphenyl)-3-methyl-5-methylthioindole]", "values": [{"measurement": "inhibition at 10 mg/kg", "setting": "[1]", "result": 41, "unit": "%"}]}, {"smiles": "CCN(CC)CCNc1ccc2[nH]c(-c3cc(C)c(O)c(C)c3)c(C)c2c1", "note": "[Example 38, 5-(2-diethylaminoethylamino)-2-(4-hydroxy-3,5-dimethylphenyl)-3-methylindole dihydrochloride]", "values": [{"measurement": "inhibition at 10 mg/kg", "setting": "[1]", "result": 38.3, "unit": "%"}]}, {"smiles": "CCCCCC#CCC#CCC#CCC#CCCCC(=O)O", "note": "[5,8,11,14-eicosatetraynoic acid]", "values": [{"measurement": "lipoxygenase inhibition", "setting": "[2]", "result": "lipoxygenase inhibitors"}, {"measurement": "cyclooxygenase inhibition (lack of specificity)", "setting": "[3]", "result": "lack specificity and inhibit not only lipoxygenase but also cyclooxygenase"}]}, {"smiles": "CCc1cc(-c2[nH]c3ccc(OC)cc3c2C)cc(CC)c1O", "note": "[Example 48, 2-(3,5-diethyl-4-hydroxyphenyl)-5-methoxy-3-methylindole]", "values": [{"measurement": "inhibition at 10 mg/kg", "setting": "[1]", "result": 28.3, "unit": "%"}]}, {"smiles": "CCc1cc(-c2[nH]c3ccccc3c2CC)cc(CC)c1O", "note": "[Example 50, 3-ethyl-2-(3,5-diethyl-4-hydroxyphenyl)indole]", "values": [{"measurement": "inhibition at 10 mg/kg", "setting": "[1]", "result": 21.5, "unit": "%"}]}, {"smiles": "Cc1cc(-c2[nH]c3ccc(OC(C)C)cc3c2C)cc(C)c1O", "note": "[Example 9, 2-(4-Hydroxy-3,5-dimethylphenyl)-3-methyl-5-isopropoxyindole]", "values": [{"measurement": "inhibition at 10 mg/kg", "setting": "[1]", "result": 58.4, "unit": "%"}]}]}
